According to patent publication US20150315241A1, “Antibiotic Peptides” (priority 2007, published 2015):
In brackets after ≈: the same amount, converted by molar mass. Read-outs that look alike come from different tables or passages of the source. Where a SMILES comes first, the peptide text is derived from it. Where no end group is shown, it is not given here. [ ]: non-standard residue; d: D form. Hyp = O=C(O)[C@@H]1C[C@@H](O)CN1; NMeL = CN[C@@H](CC(C)C)C(=O)O; Orn = NCCC[C@H](N)C(=O)O

Key:
[1] = test system: S. enterica subsp. Enterica serovar. typhi G10215 ATCC 700408; assay type: cell-based, Salmonella enterica; conditions: ATCC 700408, 20 h
Procedure, shortened: (§1)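 Peptides were serially diluted two-fold in 1% TSB to give final concentrations from 125 μg/mL to 60 ng/mL. Bacteria grown overnight in nutrient broth at 37° C. were added at 5×10^6 CFU/mL. Plates were incubated 20 hrs at 37° C. and absorbance at 595 nm recorded.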

Mycobacterium vaccae = assay type: cell-based; conditions: 20 h
Experimental: The minimal inhibition concentrations (MIC) of the apidaecin-derived peptides and peptide-derivatives were determined by a growth inhibition assay using a serial peptide dilution in sterilized round-bottom 96-well plates (polystyrene, U-bottom, Greiner Bio-One GmbH) with a final volume of 100 μL per well. The bacteria, e.g., E. coli BL21 A1, were grown in nutrient broth (NB, Carl Roth GmbH+Co. KG, Karlsruhe, Germany) at 37° C. over night. To each well of the 96-well plate, 50 μL of the overnight culture adjusted to 5×10^6 CFU/mL in 1% TSB were added. Lyophilized peptides and peptidomimetics were dissolved in 1% TSB (tryptic soy broth) or water to give a final concentration of 250 μg/mL. Fifty μL of the peptide or peptidomimetics solution were added to the first well of a row on the plate and mixed. Fifty μL of the first well containing the peptide solution were transferred to the second well, mixed and again 50 μL transferred to the next well and so on. Thereby, a two-fold dilution series was obtained starting at 250 μg/mL in the first well down to 120 ng/mL in the 12th well of a row giving a final peptide or peptidomimetics concentration from 125 μg/mL (well 1) to 60 ng/mL (well 12). Plates were incubated at 37° C. for 20 hrs. The absorbance was measured at 595 nm using a TECAN micro plate spectrophotometer (Tecan, Germany). All peptides and peptidomimetics were measured in triplicates. Sterilized water was used as a negative control.
The bacteria strains were tested: • Eschericha coli 1103, 10233, BL 21 AI, DC 2, • Klebsiella pneumoniae 681, • Micrococcus luteus ATCC 10240, • Mycobacterium vaccae • Bactillus subtillis 347.

B. subtilis 347 = assay type: cell-based, Bactillus subtillis; conditions: 347, 20 h
Procedure, shortened: (§2)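 Two-fold serial dilution in 1% TSB, final 125 μg/mL to 60 ng/mL; inoculum 5×10^6 CFU/mL (before 1:1 mixing with peptide). Incubated 20 hrs at 37° C., growth read as absorbance at 595 nm, in triplicate with sterile water as negative control.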

E. coli D31 = assay type: cell-based, Escherichia coli; conditions: D31, 20 h
Procedure, shortened: as §1

K. pneumonia 681 = assay type: cell-based, Klebsiella pneumoniae; conditions: 20 h
Procedure, shortened: as §2

S. typhi S5 = assay type: cell-based, Salmonella typhi; conditions: S5, 20 h
Procedure, shortened: as §1

M. luteus ATCC 10240 = assay type: cell-based, Micrococcus luteus; conditions: ATCC 10240, 20 h
Procedure, shortened: as §2

E. coli 1103 = assay type: cell-based, Escherichia coli; conditions: 1103, 20 h
Procedure, shortened: as §2

in vitro = in vitro ADME, mouse; conditions: 37° C.
Procedure, shortened: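 Peptide or peptidomimetic (0.5 mg/mL aqueous stock) incubated in 25% pooled mouse serum at 37 °C, sampled at 0–6 h, in duplicate. Proteins precipitated with 15% TCA; supernatants neutralized and analyzed by RP-HPLC with 0.1% TFA. Degradation products identified by MALDI-TOF/TOF-MS.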

K. Pneumonia 123132 = experiment: Growth inhibition assay (MIC); assay type: cell-based, Klebsiella pneumoniae; conditions: multidrug resistant strain; 1% TSB, 37° C., 20 hrs
Procedure, shortened: as §1

[2] = test system: K. Pneumonia K6, ATCC 700603; experiment: Growth inhibition assay (MIC); assay type: cell-based, Klebsiella pneumoniae; conditions: multidrug resistant strain; 1% TSB, 37° C., 20 hrs
Procedure, shortened: as §1

E. coli BL 21 AI = experiment: Growth inhibition assay (MIC); assay type: cell-based, Escherichia coli; conditions: 1% TSB, 37° C., 20 hrs
Procedure, shortened: as §2

[3] = test system: R. radiobatter ATCC 15955; experiment: Growth inhibition assay (MIC); assay type: cell-based, Rhizobium radiobacter; conditions: multidrug resistant strain; 1% TSB, 37° C., 20 hrs
Procedure, shortened: as §1

E. coli 45849 = experiment: Growth inhibition assay (MIC); assay type: cell-based, Escherichia coli; conditions: multidrug resistant strain; 1% TSB, 37° C., 20 hrs
Procedure, shortened: as §1

E. coli 10233 = assay type: cell-based, Escherichia coli; conditions: 10233, 20 h
Procedure, shortened: as §2

E. coli DC 2 = experiment: Growth inhibition assay (MIC); assay type: cell-based, Escherichia coli; conditions: 1% TSB, 37° C., 20 hrs
Procedure, shortened: as §2

Row | Compound | MIC S. enterica subsp. Enterica serovar. typhi G10215 ATCC 700408 [1] | MIC Mycobacterium vaccae (Mycobacterium vaccae) | MIC B. subtilis 347 (B. subtilis 347) | MIC E. coli D31 (E. coli D31) | MIC K. pneumonia 681 (K. pneumonia 681) | MIC S. typhi S5 (S. typhi S5) | MIC M. luteus ATCC 10240 (M. luteus ATCC 10240) | MIC E. coli 1103 (E. coli 1103) | half-life at 0.061 mg/mL (in vitro; 25% aqueous mouse serum, read-out: Half-life time) | MIC K. Pneumonia 123132 (K. Pneumonia 123132) | MIC K. Pneumonia K6, ATCC 700603 [2] | MIC E. coli BL 21 AI (E. coli BL 21 AI) | MIC R. radiobatter ATCC 15955 [3] | MIC E. coli 45849 (E. coli 45849) | MIC E. coli 10233 (E. coli 10233) | Half-life time (in vitro; 25% aqueous mouse serum) | half-life at 0.061 mg/mL (in vitro; mouse, 25% aqueous serum, read-out: half-life) | MIC E. coli DC 2 (E. coli DC 2)
1 | CC[C@H](C)[C@H](NC(=O)[C@H](CCCNC(=N)N)NC(=O)[C@@H]1CCCN1C(=O)[C@H](Cc1c[nH]cn1)NC(=O)[C@@H]1CCCN1C(=O)[C@@H]1CCCN1C(=O)[C@H](CCCNC(=N)N)NC(=O)[C@@H]1C[C@@H](O)CN1C(=O)[C@H](CCCNC(=N)N)NC(=O)[C@@H]1CCCN1C(=O)[C@@H](NC(=O)[C@H](Cc1ccc(O)cc1)NC(=O)[C@@H](NC(=O)[C@@H]1CCCN1C(=O)[C@H](CCCNC(=N)N)NC(=O)[C@H](CC(N)=O)NC(=O)[C@H](CC(N)=O)NC(=O)CN)C(C)C)[C@@H](C)CC)C(N)=O [compound 15] (H-GNNRPVYIPR[Hyp]RPPHPRI-NH2) | 2 µg/mL (≈ 0.93 µM) | 125 µg/mL (≈ 58.1 µM) | >125 µg/mL | 64 µg/mL (≈ 29.7 µM) | 3.9 µg/mL (≈ 1.81 µM) | 2 µg/mL (≈ 0.93 µM) | 1.95 µg/mL (≈ 0.906 µM) | 1.95 µg/mL (≈ 0.906 µM) | – | – | – | – | – | – | – | – | – | –
2 | CC[C@H](C)[C@H](NC(=O)[C@@H]1CCCN1C(=O)[C@H](CCCNC(=N)N)NC(=O)[C@@H]1CCCN1C(=O)[C@H](Cc1c[nH]cn1)NC(=O)[C@@H]1CCCN1C(=O)[C@@H]1CCCN1C(=O)[C@H](CCCNC(=N)N)NC(=O)[C@@H]1CCCN1C(=O)[C@H](CCCNC(=N)N)NC(=O)[C@@H]1CCCN1C(=O)[C@@H](NC(=O)[C@H](Cc1ccc(O)cc1)NC(=O)[C@@H](NC(=O)[C@@H]1CCCN1C(=O)[C@H](CCCNC(=N)N)NC(=O)[C@H](CC(N)=O)NC(=O)[C@H](CC(N)=O)NC(=O)[C@@H](N)CCCN)C(C)C)[C@@H](C)CC)C(=O)N[C@@H](CCCNC(=N)N)C(=O)N[C@H](C(=O)O)C(C)C [compound 23] (H-[Orn]NNRPVYIPRPRPPHPRPIRV-OH) | 8 µg/mL (≈ 3.14 µM) | – | 125 µg/mL (≈ 49.1 µM) | 64 µg/mL (≈ 25.1 µM) | 62.5 µg/mL (≈ 24.5 µM) | 8 µg/mL (≈ 3.14 µM) | 0.12 µg/mL (≈ 0.0471 µM) | 7.81 µg/mL (≈ 3.07 µM) | 4 h | 16 µg/mL (≈ 6.28 µM) | 32 µg/mL (≈ 12.6 µM) | 1.95 to 3.91 µg/mL | 0.65 µg/mL (≈ 0.255 µM) | 8 µg/mL (≈ 3.14 µM) | 3.91 µg/mL (≈ 1.54 µM) | – | – | –
3 | CC[C@H](C)[C@H](NC(=O)[C@H](Cc1ccc(O)cc1)NC(=O)[C@@H](NC(=O)[C@@H]1CCCN1C(=O)[C@H](CCCNC(=N)N)NC(=O)[C@H](CC(N)=O)NC(=O)[C@H](CC(N)=O)NC(=O)[C@H](CCCN)NC(C)=O)C(C)C)C(=O)N1CCC[C@H]1C(=O)N[C@@H](CCC(N)=O)C(=O)N1CCC[C@H]1C(=O)N[C@@H](CCCNC(=N)N)C(=O)N1CCC[C@H]1C(=O)N1CCC[C@H]1C(=O)N[C@@H](Cc1c[nH]cn1)C(=O)N1CCC[C@H]1C(=O)N[C@@H](CCCNC(=N)N)C(=O)N(C)[C@@H](CC(C)C)C(N)=O [compound 32] (Ac-[Orn]NNRPVYIPQPRPPHPR[NMeL]-NH2) | 8 µg/mL (≈ 3.6 µM) | – | >125 µg/mL | 64 µg/mL (≈ 28.8 µM) | >125 µg/mL | 32 µg/mL (≈ 14.4 µM) | 7.81 µg/mL (≈ 3.52 µM) | 31.4 µg/mL (≈ 14.1 µM) | – | >64 µg/mL | >128 µg/mL | 15.63 µg/mL (≈ 7.04 µM) | 1.3 µg/mL (≈ 0.585 µM) | 8 µg/mL (≈ 3.6 µM) | 31.25 µg/mL (≈ 14.1 µM) | >6 h | > 6 h | –
4 | CC[C@H](C)[C@H](NC(=O)[C@H](CCCNC(=N)N)NC(=O)[C@@H]1CCCN1C(=O)[C@H](Cc1c[nH]cn1)NC(=O)[C@@H]1CCCN1C(=O)[C@@H]1CCCN1C(=O)[C@H](CCCNC(=N)N)NC(=O)[C@@H]1CCCN1C(=O)[C@H](CCCNC(=N)N)NC(=O)[C@@H]1CCCN1C(=O)[C@@H](NC(=O)[C@H](Cc1ccc(O)cc1)NC(=O)[C@@H](NC(=O)[C@@H]1CCCN1C(=O)[C@H](CCCNC(=N)N)NC(=O)[C@H](CC(N)=O)NC(=O)[C@H](CC(N)=O)NC(=O)[C@H](CCCN)NC(C)=O)C(C)C)[C@@H](C)CC)C(N)=O [compound 65] (Ac-[Orn]NNRPVYIPRPRPPHPRI-NH2) | – | 62.5 µg/mL (≈ 28 µM) | 125 µg/mL (≈ 55.9 µM) | – | 7.81 µg/mL (≈ 3.49 µM) | – | 0.98 µg/mL (≈ 0.439 µM) | 1.95 µg/mL (≈ 0.873 µM) | – | – | – | 0.98 µg/mL (≈ 0.439 µM) | – | – | – | – | – | 7.81 µg/mL (≈ 3.49 µM)
5 | GNNRPVYIPKPRPPHPRI-NH2 [compound 17] | 4 to 8 µg/mL | – | – | 32 µg/mL | 31.25 µg/mL | 16 µg/mL | 0.98 µg/mL | 1.95 µg/mL | – | 16 µg/mL | 32 µg/mL | 0.98 µg/mL | 0.65 µg/mL | 8 µg/mL | – | – | – | 31.25 µg/mL
6 | GNNRPVYIPRPRPPHPRI-NH2 [compound 14] | 2 µg/mL | – | – | 64 µg/mL | 15.62 µg/mL | – | 0.98 µg/mL | 0.98 µg/mL | – | – | 8 µg/mL | 0.49 µg/mL | – | – | – | – | – | 7.81 µg/mL
7 | H-GNNRPVYLPQPRPPHPRI-NH2 [compound 26] | 4 µg/mL | – | – | >128 µg/mL | 15.62 µg/mL | 32 µg/mL | 1.95 µg/mL | 3.91 µg/mL | – | 32 µg/mL | 128 µg/mL | 3.91 µg/mL | 2.6 µg/mL | 16 µg/mL | – | – | – | 7.81 µg/mL
